One experiment has as its target JAK3 enzyme (Homo sapiens (Human), UniProt P52333). Description: JAK Caliper Enzyme Assay at 4 μM or 1 mM ATP. It is filed as biochemical.
The subject of experiment [1] is IL-15 induced P-STAT5 in human PBMC. As to the kind of experiment: PBMC IL-15 induced P-STAT5. It is filed as cell-based. The settings on record: human PBMC, IL-15 stimulated, read-out: PBMC IL15-pSTAT5 IC50. The method, then:
PBMC IL-15 Induced P-STAT5
Frozen human PBMC (200-250 million cells/vial) was thawed at 37° C. The cells were transferred to 10 mL warm medium in a 50-mL conical tube, and centrifuged at 1,200 RPM at room temperature for 5 min. The supernatant was aspirated. […] After adding 47 ml D-PBS (37° C.) to PBMC/FBS suspension, centrifuging at 1,200 RPM at room temperature for 5 min, and aspirating the supernatant, the cells were resuspended in 20 mL warm RPMI medium. Ninety μL of cell suspension were pipetted per well in a 96-well, deep-well, V-bottom plate, and the plate was incubated at 37° C. for 30 min. […] After adding 0.8 mL staining buffer per well, the plates were centrifuged at 1,200 RPM (Beckman GS-6R or Sorvall Legend) at room temperature for 5 min, and again the supernatant was aspirated using a 8-channel or 12-channel manifold. The plate was vortexed, and 0.35 mL 90% methanol/10% H2O (−20° C.) was added per well, and the plate incubated on ice for 20 min. After again adding 0.8 mL staining buffer per well, the plates were centrifuged at 1,200 RPM (Beckman GS-6R or Sorvall Legend) at room temperature for 5 min, and again the supernatant was aspirated using a 8-channel or 12-channel manifold, and then 0.8 mL Staining buffer was added per well. After once again adding 0.8 mL staining buffer per well, the plates were centrifuged at 1,200 RPM (Beckman GS-6R or Sorvall Legend) at room temperature for 5 min, and again the supernatant was aspirated using a 8-channel or 12-channel manifold. […] Samples of 250 μL/well were transferred to a 96-well U-bottom plate, and the FACS analysis was performed gating on total lymphocytes. Samples were analyzed using a BD Calibur™ or BD FACSCanto™ flow cytometer equipped with the BD High Throughput Sampler.

[2] abbreviates: read-out: JAK3 (4 μM ATP) IC50, 4 μM ATP.
[3] abbreviates: read-out: JAK3 (1 mM ATP) IC50, 1 mM ATP.

Read-outs that look alike come from different tables or passages of the source. Bounds are passed on as bounds.

Chain of JAK3 enzyme (P52333 whole entry, species assumed): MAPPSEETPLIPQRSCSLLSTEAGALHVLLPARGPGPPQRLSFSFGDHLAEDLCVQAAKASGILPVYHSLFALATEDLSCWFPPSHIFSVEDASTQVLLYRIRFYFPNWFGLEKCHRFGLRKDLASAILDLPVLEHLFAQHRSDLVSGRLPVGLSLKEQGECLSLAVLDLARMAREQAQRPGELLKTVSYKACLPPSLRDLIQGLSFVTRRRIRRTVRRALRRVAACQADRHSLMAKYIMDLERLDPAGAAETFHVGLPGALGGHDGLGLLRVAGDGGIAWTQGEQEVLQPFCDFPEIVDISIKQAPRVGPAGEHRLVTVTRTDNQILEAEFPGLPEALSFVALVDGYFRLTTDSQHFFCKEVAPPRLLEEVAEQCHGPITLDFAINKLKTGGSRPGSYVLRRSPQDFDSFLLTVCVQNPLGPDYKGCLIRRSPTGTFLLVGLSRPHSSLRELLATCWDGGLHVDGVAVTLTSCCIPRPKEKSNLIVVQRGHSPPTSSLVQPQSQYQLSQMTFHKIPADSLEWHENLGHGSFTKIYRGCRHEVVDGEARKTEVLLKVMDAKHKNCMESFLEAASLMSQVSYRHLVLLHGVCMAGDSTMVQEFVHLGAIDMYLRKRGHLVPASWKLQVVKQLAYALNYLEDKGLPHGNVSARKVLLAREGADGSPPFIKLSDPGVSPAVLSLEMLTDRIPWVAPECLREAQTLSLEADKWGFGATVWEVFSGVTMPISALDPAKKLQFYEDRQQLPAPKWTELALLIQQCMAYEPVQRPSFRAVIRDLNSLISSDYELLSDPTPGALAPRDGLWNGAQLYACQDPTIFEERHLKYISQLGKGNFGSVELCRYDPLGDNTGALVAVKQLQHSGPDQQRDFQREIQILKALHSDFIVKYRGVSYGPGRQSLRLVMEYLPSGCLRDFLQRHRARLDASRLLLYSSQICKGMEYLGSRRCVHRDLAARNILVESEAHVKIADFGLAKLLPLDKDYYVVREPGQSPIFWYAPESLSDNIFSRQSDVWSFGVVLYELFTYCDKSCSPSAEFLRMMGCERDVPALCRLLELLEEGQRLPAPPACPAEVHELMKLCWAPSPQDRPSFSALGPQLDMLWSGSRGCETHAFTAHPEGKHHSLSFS

One may read the IC50 as the concentration needed to halve the response being measured. Regarding `C=CC(=O)N1CC[C@@H](O)[C@@H](Nc2ncnc3[nH]ccc23)C1` (racemic) [Example 64, 1-[(3S,4R)-4-Hydroxy-3-(7H-pyrrolo[2,3-d]pyrimidin-4-ylamino)piperidin-1-yl]prop-2-en-1-one], the half-inhibitory concentration (IC50) is 5.3 nM at JAK3 enzyme (setting [2]), 996 nM at JAK3 enzyme (setting [3]) and 4640 nM in experiment [1]. On to `C=CC(=O)N1CC[C@@H]2OCCN(c3ncnc4[nH]ccc34)[C@H]2C1` [Example 119, 1-[(4aS,8aS)-4-(7H-Pyrrolo[2,3-d]pyrimidin-4-yl)hexahydro-2H-pyrido[4,3-b][1,4]oxazin-6 (5H)-yl]prop-2-en-1-one], for which the IC50 in experiment [1] was over 10000 nM. As to `C=CC(=O)N1CC[C@@H]2OCCN(c3ncnc4[nH]ccc34)[C@@H]2C1` [Example 90, 1-[(4aR,8aS)-4-(7H-Pyrrolo[2,3-d]pyrimidin-4-yl)hexahydro-2H-pyrido[4,3-b][1,4]oxazin-6 (5H)-yl]prop-2-en-1-one], the IC50 in experiment [1] (Homo sapiens, PBMC) is over 10000 nM. As to `C=CC(=O)N1CC(Nc2ncnc3[nH]ccc23)CCC1CO` (centres unmarked) [Example 52, 1-[2-(Hydroxymethyl)-5-(7H-pyrrolo[2,3-d]pyrimidin-4-ylamino)piperidin-1-yl]prop-2-en-1-one], in experiment [1], the concentration for half-maximal inhibition (IC50) was over 354 nM. Same read-out and setting: the figure for `C=C(CN(C)C)C(=O)N1CCC[C@@H](Nc2ncnc3[nH]ccc23)C1` [Example 92, 2-[(dimethylamino)methyl]-1-[(3R)-3-(7H-pyrrolo[2,3-d]pyrimidin-4-ylamino)piperidin-1-yl]prop-2-en-1-one] is over 10000 nM; for `C=CC(=O)N1CC[C@H]2CCN(c3ncnc4[nH]ccc34)[C@H]2C1` [Example 76, 1-[(3aR,7aR)-1-(7H-Pyrrolo[2,3-d]pyrimidin-4-yl)octahydro-6H-pyrrolo[2,3-c]pyridin-6-yl]prop-2-en-1-one] it is over 6080 nM. Turning to `C=CC(=O)N1CC[C@@H]2CCN(c3ncnc4[nH]ccc34)[C@H]2C1` [Example 49, 1-[(3aS,7aR)-1-(7H-Pyrrolo[2,3-d]pyrimidin-4-yl)octahydro-6H-pyrrolo[2,3-c]pyridin-6-yl]prop-2-en-1-one], the IC50 in experiment [1] was 355 nM. Same read-out and setting: the result for `C=CC(=O)N1CC[C@H](O)[C@@H](Nc2ncnc3[nH]ccc23)C1` (racemic) [Example 113, rac-1-[(3S,4S)-4-Hydroxy-3-(7H-pyrrolo[2,3-d]pyrimidin-4-ylamino)piperidin-1-yl]prop-2-en-1-one] reads over 10000 nM.

Take `C=CC(=O)N1CCC[C@@H](Nc2ncnc3[nH]cc(CC(C)C)c23)C1` [Example 39, 1-[(3R)-3-{[5-(2-methylpropyl)-7H-pyrrolo[2,3-d]pyrimidin-4-yl]amino}piperidin-1-yl]prop-2-en-1-one]: the concentration for half-maximal inhibition (IC50) on JAK3 enzyme (setting [2]) was over 10000 nM. Regarding `C=CC(=O)N1CCC(Nc2cnc3[nH]cc(C(=O)NC4CCC4)c3n2)CC1` [Example 280, 2-[(1-acryloylpiperidin-4-yl)amino]-N-cyclobutyl-5H-pyrrolo[2,3-b]pyrazine-7-carboxamide], the IC50 turned out to be 0.2 nM at JAK3 enzyme (setting [2]) and 4 nM on JAK3 enzyme (setting [3]). As for `C=CC(=O)N1CCCC(C)(Nc2ncnc3[nH]ccc23)C1` (centres unmarked) [Example 71, 1-(3-((7H-Pyrrolo[2,3-d]pyrimidin-4-yl)amino)-3-methylpiperidin-1-yl)prop-2-en-1-one], in experiment [1] (Homo sapiens, PBMC), the 50% inhibitory concentration (IC50) was over 10000 nM.

Turning to `C=CC(=O)NC1CCN(c2cnc3[nH]ccc3n2)C1` (centres unmarked) [Example 167, N-[1-(5H-pyrrolo[2,3-b]pyrazin-2-yl)pyrrolidin-3-yl]prop-2-enamide], the half-inhibitory concentration (IC50) at JAK3 enzyme (setting [2]) came out at 2410 nM. Take `C=CC(=O)N1C[C@H](Nc2ncnc3[nH]ccc23)CC[C@@H]1CC` (single isomer, unassigned) [Example 9]: the 50% inhibitory concentration (IC50) turned out to be 0.4 nM on JAK3 enzyme (setting [2]) and 53.9 nM on JAK3 enzyme (setting [3]).

Turning to `O=C(/C=C/c1c[nH]cn1)N1CCC[C@@H](Nc2ncnc3[nH]ccc23)C1` [Example 107, (2E)-3-(1H-imidazol-4-yl)-1-[(3R)-3-(7H-pyrrolo[2,3-d]pyrimidin-4-ylamino)piperidin-1-yl]prop-2-en-1-one], on JAK3 enzyme (setting [2]), the IC50 worked out at 1160 nM. Consider `C=CC(=O)N1CCC(Nc2cnc3[nH]cc(C(=O)N[C@H](C)COC)c3n2)CC1` [Example 268, 2-[(1-acryloylpiperidin-4-yl)amino]-N-[(2R)-1-methoxypropan-2-yl]-5H-pyrrolo[2,3-b]pyrazine-7-carboxamide], for which the values for the IC50 on JAK3 enzyme (setting [2]) and at JAK3 enzyme (setting [3]) were 0.3 nM and 7.9 nM, respectively. In the same order, the values of `C=CC(=O)N1C[C@H](Nc2ncnc3[nH]ccc23)C[C@H](N(C)C)C1` [Example 57, 1-((3R,5S)-3-((7H-Pyrrolo[2,3-d]pyrimidin-4-yl)amino)-5-(dimethylamino)piperidin-1-yl)prop-2-en-1-one] are 1.4 nM and 361 nM.

As for `C=CC(=O)N1C[C@@H](Nc2ncnc3[nH]ccc23)CC[C@@H]1CC` [Example 125, 1-[(2S,5S)-2-Ethyl-5-(7H-pyrrolo[2,3-d]pyrimidin-4-ylamino)piperidin-1-yl]prop-2-en-1-one], the results for the IC50 on JAK3 enzyme (setting [2]) and on JAK3 enzyme (setting [3]) were 1420 nM and over 10000 nM, respectively. For the compound `C=CC(=O)N1CCC(Nc2cnc3[nH]cc(C(=O)N[C@H]4CC[C@H](F)C4)c3n2)CC1` [Example 247, 2-[(1-acryloylpiperidin-4-yl)amino]-N-[(1S,3S)-3-fluorocyclopentyl]-5H-pyrrolo[2,3-b]pyrazine-7-carboxamide], the IC50 worked out at 0.2 nM at JAK3 enzyme (setting [2]) and 8.2 nM at JAK3 enzyme (setting [3]). In the same order, the values of `C=CC(=O)N1C[C@H](O)C[C@@H](Nc2ncnc3[nH]ccc23)C1` [Example 60, 1-((3R,5R)-3-((7H-Pyrrolo[2,3-d]pyrimidin-4-yl)amino)-5-hydroxypiperidin-1-yl)prop-2-en-1-one] are 4.2 nM and 603 nM. Regarding `C/C=C/C(=O)N1CCC[C@@H](Nc2ncnc3[nH]cc(Cc4ccc(O)cc4)c23)C1` [Example 138, (2E)-1-[(3R)-3-{[5-(4-Hydroxybenzyl)-7H-pyrrolo[2,3-d]pyrimidin-4-yl]amino}piperidin-1-yl]but-2-en-1-one], on JAK3 enzyme (setting [2]), the concentration for half-maximal inhibition (IC50) was found to be 110 nM. With `C=CC(=O)N1CCC[C@@](C)(Nc2ncnc3[nH]ccc23)C1` [Example 72, (R)-1-(3-((7H-pyrrolo[2,3-d]pyrimidin-4-yl)amino)-3-methylpiperidin-1-yl)prop-2-en-1-one], in experiment [1] (Homo sapiens, PBMC), the IC50 is over 10000 nM.

On to `C=CC(=O)N1CCC[C@@H](Nc2ncnc3[nH]cc(-c4cncc(F)c4)c23)C1` [Example 23, 1-[(3R)-3-{[5-(5-fluoropyridin-3-yl)-7H-pyrrolo[2,3-d]pyrimidin-4-yl]amino}piperidin-1-yl]prop-2-en-1-one], for which the half-maximal inhibitory concentration (IC50) was 1.3 nM at JAK3 enzyme (setting [2]) and 86.6 nM on JAK3 enzyme (setting [3]). For `C=CC(=O)N1CCC(Nc2cnc3[nH]cc(C(=O)NCCC#N)c3n2)CC1` [Example 261, 2-[(1-acryloylpiperidin-4-yl)amino]-N-(2-cyanoethyl)-5H-pyrrolo[2,3-b]pyrazine-7-carboxamide], the results for the IC50 on JAK3 enzyme (setting [2]) and at JAK3 enzyme (setting [3]) were 0.2 nM and 7.4 nM, respectively. On to `C=CC(=O)N1CCC(Oc2cnc3[nH]cc(-c4cnc(OC)nc4)c3n2)CC1` [Example 219, 1-(4-{[7-(2-methoxypyrimidin-5-yl)-5H-pyrrolo[2,3-b]pyrazin-2-yl]oxy}piperidin-1-yl)prop-2-en-1-one], for which the IC50 is 1.7 nM at JAK3 enzyme (setting [2]) and 153 nM at JAK3 enzyme (setting [3]). In the case of `O=C(/C=C/C(F)(F)F)N1CC[C@@H]2CCN(c3ncnc4[nH]ccc34)[C@@H]2C1` [Example 81, (2E)-4,4,4-trifluoro-1-[(3aS,7aS)-1-(7H-pyrrolo[2,3-d]pyrimidin-4-yl)octahydro-6H-pyrrolo[2,3-c]pyridin-6-yl]but-2-en-1-one], the IC50 in experiment [1] (Homo sapiens, PBMC) was over 4000 nM.

On to `C=CC(=O)N1CCC[C@@H](Nc2ncnc3[nH]cc(CC#N)c23)C1` [Example 20, (R)-2-(4-((1-Acryloylpiperidin-3-yl)amino)-7H-pyrrolo[2,3-d]pyrimidin-5-yl)acetonitrile], for which the IC50 at JAK3 enzyme (setting [2]) stood at 1 nM; on JAK3 enzyme (setting [3]) it was 76.5 nM. The matching figures for `C=CC(=O)N1CCC(Oc2cnc3[nH]cc(-c4ccnc(F)c4)c3n2)CC1` [Example 222, 1-(4-{[7-(2-fluoropyridin-4-yl)-5H-pyrrolo[2,3-b]pyrazin-2-yl]oxy}piperidin-1-yl)prop-2-en-1-one]: 1.1 nM and 125 nM. For `C=CC(=O)N1CCC[C@@H](N(C)c2ncnc3[nH]cc(CCOC)c23)C1` [Example 136, 1-[(3R)-3-{[5-(2-Methoxyethyl)-7H-pyrrolo[2,3-d]pyrimidin-4-yl](methyl)amino]piper-idin-1-yl]prop-2-en-1-one], the IC50 at JAK3 enzyme (setting [2]) was 238 nM. For `C=CC(=O)N1CCC(Nc2cnc3[nH]cc(C(=O)NC4CCC(F)(F)C4)c3n2)CC1` (centres unmarked) [Example 259, 2-[(1-acryloylpiperidin-4-yl)amino]-N-(3,3-difluorocyclopentyl)-5H-pyrrolo[2,3-b]pyrazine-7-carboxamide], the results for the IC50 on JAK3 enzyme (setting [2]) and on JAK3 enzyme (setting [3]) were 0.2 nM and 11.1 nM, respectively.

For the origin of these results see patent publication US20250134869A1, “Pyrrolo[2,3-d]pyrimidinyl, Pyrrolo[2,3-b]pyrazinyl and Pyrrolo[2,3-d]pyridinyl Acryla-mides” (Pfizer Inc, priority 2021, published 2025).
